ChEMBL document CHEMBL2074062, “Active intestinal secretion of new quinolone antimicrobials and the partial contribution of P-glycoprotein” (J Pharm Pharmacol, 2001)

Tests used:
[1] = target: ATP-dependent translocase ABCB1 (Homo sapiens, UniProt P08183); assay: TP_TRANSPORTER: transepithelial transport (basal to apical) in MDR1-expressing LLC-PK1 cells; format: functional, cell-based; conditions: pig
[2] = target: ATP-dependent translocase ABCB1 (Mus musculus, UniProt P21447); assay: TP_TRANSPORTER: decrease in intestinal clearance in mdr1a(-/-) mouse; format: functional, tissue-based, Intestine
ATP-dependent translocase ABCB1 (Mus musculus, UniProt P21447), sequence (P21447 whole entry): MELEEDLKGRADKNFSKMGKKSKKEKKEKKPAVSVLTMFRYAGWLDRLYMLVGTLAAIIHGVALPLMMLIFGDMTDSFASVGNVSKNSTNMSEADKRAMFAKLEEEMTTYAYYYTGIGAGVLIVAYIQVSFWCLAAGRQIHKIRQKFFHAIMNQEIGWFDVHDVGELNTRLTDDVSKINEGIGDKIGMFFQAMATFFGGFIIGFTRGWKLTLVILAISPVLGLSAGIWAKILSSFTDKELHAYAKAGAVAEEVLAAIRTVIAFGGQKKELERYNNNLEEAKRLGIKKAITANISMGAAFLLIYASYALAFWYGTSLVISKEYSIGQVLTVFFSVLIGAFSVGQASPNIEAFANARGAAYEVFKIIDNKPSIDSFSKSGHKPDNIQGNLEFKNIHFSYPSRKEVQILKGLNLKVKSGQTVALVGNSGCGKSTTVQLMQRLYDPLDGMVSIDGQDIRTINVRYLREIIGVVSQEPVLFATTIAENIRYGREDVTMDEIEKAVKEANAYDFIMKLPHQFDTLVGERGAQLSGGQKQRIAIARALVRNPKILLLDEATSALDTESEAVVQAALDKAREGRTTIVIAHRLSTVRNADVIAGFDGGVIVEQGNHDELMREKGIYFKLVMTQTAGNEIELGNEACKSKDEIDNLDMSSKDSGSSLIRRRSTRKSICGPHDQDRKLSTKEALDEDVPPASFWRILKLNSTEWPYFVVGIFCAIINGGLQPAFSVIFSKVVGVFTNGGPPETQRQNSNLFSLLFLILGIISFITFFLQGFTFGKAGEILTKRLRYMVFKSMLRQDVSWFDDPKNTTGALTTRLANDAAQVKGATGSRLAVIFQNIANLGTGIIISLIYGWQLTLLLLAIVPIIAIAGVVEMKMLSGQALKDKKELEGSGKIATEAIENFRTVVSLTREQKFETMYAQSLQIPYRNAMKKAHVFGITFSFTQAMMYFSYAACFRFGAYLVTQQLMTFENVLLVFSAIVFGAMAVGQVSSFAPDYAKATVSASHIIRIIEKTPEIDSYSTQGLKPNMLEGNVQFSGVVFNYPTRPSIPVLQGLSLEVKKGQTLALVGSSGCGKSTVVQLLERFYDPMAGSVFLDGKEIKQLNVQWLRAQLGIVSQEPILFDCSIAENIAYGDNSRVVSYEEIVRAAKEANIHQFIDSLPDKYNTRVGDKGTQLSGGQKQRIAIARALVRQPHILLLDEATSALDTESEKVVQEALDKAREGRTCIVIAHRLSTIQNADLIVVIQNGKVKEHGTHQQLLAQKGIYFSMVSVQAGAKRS

ATP-dependent translocase ABCB1 (Homo sapiens, UniProt P08183), sequence (P08183 whole entry): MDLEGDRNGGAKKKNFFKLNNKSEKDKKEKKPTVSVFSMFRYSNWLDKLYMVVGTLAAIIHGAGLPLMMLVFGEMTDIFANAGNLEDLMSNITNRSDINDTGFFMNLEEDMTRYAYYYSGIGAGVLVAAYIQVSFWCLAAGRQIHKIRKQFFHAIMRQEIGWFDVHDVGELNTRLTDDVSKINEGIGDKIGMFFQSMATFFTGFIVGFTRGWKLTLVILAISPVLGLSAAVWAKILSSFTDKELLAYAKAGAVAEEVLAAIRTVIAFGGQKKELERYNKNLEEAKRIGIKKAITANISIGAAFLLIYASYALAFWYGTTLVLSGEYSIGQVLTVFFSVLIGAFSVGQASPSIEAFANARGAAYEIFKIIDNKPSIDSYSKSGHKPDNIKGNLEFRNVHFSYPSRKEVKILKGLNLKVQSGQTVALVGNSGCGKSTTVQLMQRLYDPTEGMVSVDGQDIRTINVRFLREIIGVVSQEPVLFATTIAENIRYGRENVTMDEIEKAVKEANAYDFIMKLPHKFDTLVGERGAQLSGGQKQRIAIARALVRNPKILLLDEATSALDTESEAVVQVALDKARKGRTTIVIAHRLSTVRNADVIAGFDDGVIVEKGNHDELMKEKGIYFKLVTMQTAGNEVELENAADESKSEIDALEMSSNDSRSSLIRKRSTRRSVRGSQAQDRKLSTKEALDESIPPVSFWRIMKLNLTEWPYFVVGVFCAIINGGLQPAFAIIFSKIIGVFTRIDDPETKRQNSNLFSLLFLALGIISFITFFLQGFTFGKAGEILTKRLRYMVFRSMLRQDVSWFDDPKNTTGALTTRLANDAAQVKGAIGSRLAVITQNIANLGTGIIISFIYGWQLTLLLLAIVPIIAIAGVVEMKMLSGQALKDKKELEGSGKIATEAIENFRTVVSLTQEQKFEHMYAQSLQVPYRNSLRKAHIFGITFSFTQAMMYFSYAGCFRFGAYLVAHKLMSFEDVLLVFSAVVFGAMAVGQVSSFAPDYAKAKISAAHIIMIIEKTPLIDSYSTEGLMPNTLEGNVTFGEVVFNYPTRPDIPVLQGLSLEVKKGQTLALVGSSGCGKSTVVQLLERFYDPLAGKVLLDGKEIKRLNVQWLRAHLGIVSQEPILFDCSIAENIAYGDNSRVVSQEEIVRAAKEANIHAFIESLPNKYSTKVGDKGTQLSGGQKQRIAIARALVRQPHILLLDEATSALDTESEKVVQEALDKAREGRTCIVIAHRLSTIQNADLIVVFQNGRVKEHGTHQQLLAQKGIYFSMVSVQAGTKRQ

| Activity [1] | Activity [2] | SMILES |
| --- | --- | --- |
| substrate [+] | substrate [+] | Cc1c(F)c(N2CCNC(C)C2)cc2c1c(=O)c(C(=O)O)cn2C1CC1 (stereo not drawn) [GREPAFLOXACIN] |
| substrate [+] |  | C[C@@H]1CN(c2c(F)c(N)c3c(=O)c(C(=O)O)cn(C4CC4)c3c2F)C[C@H](C)N1 [SPARFLOXACIN] |
